# Data from PubChem BioAssay AID1918957 (Molecular Pharmacology Branch, DTP, NCI, 2023).
# Several values for one entry are separate records, joined by “and”; a condition that tells them apart may be missing. Equal entries are not always repeated.
# System: NCI-H1876 complex spheroid viability
# Experiment: Anticancer human tumor NCI-H1876 cell line growth inhibition [LSD1];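 also: spheroids exposed to compounds for one week before readout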;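 as to viability, T/C: 100% = DMSO vehicle-treated spheroids so lower means fewer viable cells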
# Details: for viability, T/C: stronger effect = lower value; for IC50: curve of compound
# Text: Multicellular complex tumor spheroid response to LSD1 Inhibitor Iadademstat in combination with a variety of drugs and investigational agents in selected tumor cell lines
# The current study was undertaken to assess response to LSD1 inhibitors in combination with standard-of-care drugs and investigational agents in solid tumor complex spheroid models as well as in the K-562 leukemia. Complex spheroids include a stromal component modeled by human endothelial cells (HUVEC) and fibroblasts modeled by human mesenchymal stem cells (MSCs). The concentration ranges selected for each drug and investigational agent were based upon clinically achievable concentrations if the clinical Cmax of the agent was known.
# Compounds. The drugs and investigational agents used in this study are listed on Table 1. All of the agents used, including staurosporine (NSC755774) and gemcitabine (NSC613327), were obtained from the Developmental Therapeutics Program, NCI. FDA-approved anticancer drugs are available from the NCI at http://dtp.nci.nih.gov/branches/dscb/oncology_drugset_explanation.html. Drugs and investigational agents were >95% pure by proton nuclear magnetic resonance (NMR) and liquid chromatography/mass spectrometry (LC/MS). Stock solutions were prepared at 400x in DMSO, stored at -70 degrees C, and diluted in fresh medium prior to their use. The final concentration of DMSO in cell culture wells never exceeded 0.25% (v/v). The FDA-approved anticancer drug set is available from the Developmental Therapeutics Program at https://dtp.cancer.gov/organization/dscb/obtaining/available_plates.htm. All drugs and investigational agents were tested over a range starting from a high concentration at or near the clinical Cmax and decreasing in half-log increments. If the clinical Cmax for an agent had not been determined, the highest concentration tested was 10 microM.
# Cell Lines. The patient-derived cancer cell (PDC) lines: 292921-168-R-J2-PDC, K24384-001-R-PDC, and 521955-158-R2-J5-PDC pancreatic carcinomas, 556581-035-R-J1 ovarian carcinoma, 324938-238-R-J1-PDC, 855422-203-R-J1-PDC and 883617-216-R-J1-PDC urothelial bladder carcinomas, 743489-274-T-PDC renal cell carcinoma, 138582-R-J1 Merkel cell tumor, K60290-347-R-J1 and K57222-313-R-J1-PDC glioblastomas, 653999-131-R-J2-PDC, LG0703-F948-PDC, and 349418-098-R-PDC non-small cell lung carcinomas, 885512-296-R-J2-PDC, 171881-019-R-J1-PDC breast carcinomas and 186277-243-T-J2-PDC and 233499-124-R-J2-PDC colon carcinomas were obtained from the NCI Patient-Derived Models Repository (PDMR, https://pdmr.cancer.gov). The established cell lines NCI/ADR-RES (RRID:CVCL_14520 and OVCAR-5 (RRID:CVCL_1628) ovarian carcinomas, 786-O (RRID:CVCL_1051) and A498 (RRID:CVCL_A498) renal cell carcinoma, NCI-H211 (ATCC, cat. CRL-5824; RRID:CVCL_1529), NCI-H196 (ATCC, cat. CRL-5823, RRID:CVCL_1509), SW 1271 (ATCC, cat. CRL-2177, RRID:CVCL_1716) and NCI-H1876 (ATCC, cat. CRL-5902, RRID:CVCL_1503) small cell lung carcinomas, MDA-MB-231 (RRID:CVCL_0062) and MDA-MB-468 (RRID:CVCL_0419)breast carcinomas (10-12). Pooled donor human umbilical vein endothelial cells (HUVEC, Lonza, cat. CC-2519) and human mesenchymal stem cells (hMSC, Lonza, cat. PT-2501) were purchased from Lonza (Walkersville, MD).
# Cell Culture. All cells were maintained in an incubator at 37 degrees C and 5% CO2 with 95% humidity. The PDC lines were cultured according to standard operating procedures established by the NCI PDMR (https://pdmr.cancer.gov). Briefly all PDCs were thawed and cultured in Matrigel-coated flasks prepared with a working solution of 1X Ham's F-12 nutrient mix, without supplementation (Invitrogen, Waltham, MA, cat. 11765054), 100 U/mL penicillin-streptomycin (Invitrogen, cat. 15140122), and 2.5% Matrigel (Corning Inc., Corning, NY, cat. 354248) for the first three passages. […]
IC50,Compound,"viability, T/C (compound 0.000316 µM)","viability, T/C (compound 0.001 µM)","viability, T/C (compound 0.00316 µM)","viability, T/C (compound 0.01 µM)","viability, T/C (compound 0.0316 µM)","viability, T/C (compound 0.1 µM)","viability, T/C (compound 0.316 µM)","viability, T/C (compound 1 µM)","viability, T/C (compound 3.16 µM)","viability, T/C (compound 10 µM)","viability, T/C (compound 0.00949 µM)","viability, T/C (compound 0.03 µM)","viability, T/C (compound 0.0949 µM)","viability, T/C (compound 0.3 µM)","viability, T/C (compound 0.949 µM)","viability, T/C (compound 3 µM)","viability, T/C (compound 0.000949 µM)","viability, T/C (compound 0.003 µM)"
0.56 nM and 0.462 nM,CC(C)CC(NC(=O)C(Cc1ccccc1)NC(=O)c1cnccn1)B(O)O (configuration not stated),84% and 74.3%,15.6% and 0.43%,8.34% and 0.27%,17.3% and 0.26%,7.7% and 0.24%,13.9% and 0.31%,–,–,–,–,–,–,–,–,–,–,–,–
10.3 nM and 7.69 nM,CC(C)CC(NC(=O)CNC(=O)c1cc(Cl)ccc1Cl)B1OC(=O)CC(CC(=O)O)(C(=O)O)O1 (configuration not stated),102% and 97.5%,98.9% and 91.9%,90.3% and 96%,52.4% and 36.7%,7.69% and 2.11%,15.7% and 0.34%,–,–,–,–,–,–,–,–,–,–,–,–
6590 nM and 7280 nM,CC(C)c1c(-c2ccccc2)nc2c(C#N)c[nH]n2c1=O,–,–,–,–,93.8% and 104%,94.6% and 101%,92.2% and 103%,92% and 102%,89.2% and 94.4%,27.8% and 33.1%,–,–,–,–,–,–,–,–
2270 nM and 2070 nM,CC1(C)CCC(CN2CCN(c3ccc(C(=O)NS(=O)(=O)c4ccc(NCC5CCOCC5)c([N+](=O)[O-])c4)c(Oc4cnc5[nH]ccc5c4)c3)CC2)=C(c2ccc(Cl)cc2)C1,–,–,–,–,101% and 99.5%,101% and 94.4%,101% and 110%,95.4% and 107%,31.8% and 19.4%,9.13% and 6.87%,–,–,–,–,–,–,–,–
14.6 nM and < 3.16 nM,CC1COCCN1c1cc(-c2ccnn2C)c2ccnc(-c3ccn[nH]3)c2n1 (configuration not stated),–,–,64.3% and 45%,59.2% and 33.4%,32.8% and 13.7%,19.8% and 4.72%,10% and 3.12%,12.8% and 4.1%,–,–,–,–,–,–,–,–,–,–
6200 nM and 5450 nM,CC1COCCN1c1cc(C2(S(C)(=N)=O)CC2)nc(-c2ccnc3[nH]ccc23)n1 (configuration not stated),–,–,–,–,103% and 104%,109% and 102%,102% and 103%,102% and 105%,80.3% and 74.2%,28.5% and 23.1%,–,–,–,–,–,–,–,–
> 3000 nM,CCN(c1cc(-c2ccc(CN3CCOCC3)cc2)cc(C(=O)NCc2c(C)cc(C)[nH]c2=O)c1C)C1CCOCC1,–,–,–,–,–,–,–,–,–,–,104% and 108%,97.2% and 107%,104% and 96.1%,101% and 96.2%,82.7% and 79.5%,55.7% and 54.8%,–,–
2.22 nM and 1.71 nM,CC[C@@]1(O)C(=O)OCc2c1cc1n(c2=O)Cc2cc3c(CN(C)C)c(O)ccc3nc2-1,94% and 106%,86.2% and 81.2%,33.5% and 14.2%,27.7% and 10.6%,19.8% and 6.98%,15.5% and 4.68%,–,–,–,–,–,–,–,–,–,–,–,–
< 0.949 nM,CCc1c2c(nc3ccc(O)cc13)-c1cc3c(c(=O)n1C2)COC(=O)[C@]3(O)CC,–,–,–,–,–,–,–,–,–,–,3.77% and 1.73%,0.82% and 0.45%,0.56% and 0.42%,0.51% and 0.41%,–,–,8.16% and 5.21%,6.7% and 3.21%
54 nM and 37.8 nM,COc1cc(C2c3cc4c(cc3C(OC3OC5COC(C)OC5C(O)C3O)C3COC(=O)C23)OCO4)cc(OC)c1O (configuration not stated),–,–,–,–,–,–,–,–,–,–,85.4% and 93.8%,69.1% and 57.3%,30.5% and 20.9%,32.1% and 11.1%,26.4% and 8.9%,11.7% and 9%,–,–
22.5 nM and 33.2 nM,COc1cc(Nc2ncc3c(n2)-c2ccc(Cl)cc2C(c2c(F)cccc2OC)=NC3)ccc1C(=O)O,–,–,66.5% and 69.5%,54% and 64.2%,45.4% and 48.2%,42.4% and 38.4%,37.3% and 31.5%,28.3% and 19.5%,–,–,–,–,–,–,–,–,–,–
